Patent US20060088545A1, “Use of inhibitors of the protease of the human immunodeficiency virus (hiv) to block cell migration and/or invasion, tissue infiltration and oedema for the therary of diseases associated therewith” (priority 2001, published 2006)

Assays:
[1] = test system: bFGF-induced angiogenic KS-like lesions; experiment: bFGF-induced angiogenic KS-like lesions in nude mice; format: in vivo; settings: for No. of mice with macroscopic vascular lesions/No. of inoculated mice / mice with macroscopic vascular lesions (%): bFGF 1 μg in matrigel, indinavir 1.4 mg/day or saquinavir 1 mg/day, intragastric gavage, 7 days; for Tissue staining (area % ± SD) CD31 / Tissue staining (area % ± SD) FVIII-RA: bFGF 1 μg, lesional area stained
Experimental: The mice were then inoculated with bFGF (1 μg) or with its diluting buffer in the presence of matrigel (Kleiner et al., 1993; Ensoli et al., 1994a; Samaniego et al., 1998; Barillari et al., 1999a).
The mice were then sacrificed and the inoculation areas examined both macroscopically and microscopically for the presence of KS-like angioproliferative lesions (Kleiner et al., 1993; Ensoli et al., 1994a; Samaniego et al., 1998; Barillari et al., 1999a).
At the time of sacrifice, the inoculation sites were examined to check for the presence of macroscopic angioproliferative lesions and analyzed microscopically after haematoxilin & eosin (H&E) staining or frozen for histochemical analysis of endothelial the cell markers FVIII-RA and CD31. Here are listed the number (No.) of mice that developed lesions with respect to the number (No.) of mice inoculated, and the percentage (%) of mice that developed lesions. […] Angiogenesis was quantitated by determining the tissue area stained for FVIII-RA or CD31. Shown are the percentages [mean±standard deviations (SD)] of lesional area stained for FVIII-RA or CD31 that were quantitated as described below.
These doses correspond, respectively, to the whole dose, double or half the dose of HIV-PI used daily in patients infected with HIV (Deeks et al., 1997). […] The control animals were treated with the same volume of saline solution. On the third day the mice were inoculated subcutaneously at the level of the lower dorsal quadrant with 1 μg of recombinant bFGF (Roche, Mannheim, Germany) diluted in 0.2 ml of phosphate buffer (PBS)-0.1% bovine […] albumin (BSA) or with its re-suspending buffer, mixed with 0.2 ml of Matrigel (Collaborative Biomedical Products, Bedford, Mass.) prior to inoculation, as described previously (Ensoli et al., 1994a). Four days later the mice were sacrificed, the inoculation sites were examined to check for the presence of macroscopic KS-like angioproliferative lesions, and sections of tissue histologically examined after staining with H&E. For immunohistochemical analysis, frozen tissue sections were fixed with cold acetone and stained with rabbit anti-human FVIII-RA polyclonal antibodies (Ab) (Dako, Glostrup, Denmark; 1:2000 dilution) or anti-mouse CD31 rat monoclonal Ab (BD Biosciences; 1:1000 dilution). Digital images (200× magnification) were captured by a color CCD camera (Zeiss) and analyzed by acquiring 4-9 microscopic fields (about 0.15 mm^2 per field) corresponding to the whole histologic sections. Staining was quantitated by the KS300 (Zeiss) image analysis software and expressed as the percentage of positive area over the total tissue area.

[2] = test system: T cell leukaemia (Jurkat) cells; experiment: Tumour lesions induced by Jurkat cells in nude mice; format: in vivo; settings: 20×10^6 cells/site; daily treatment
Experimental: The treatment with HIV-PI or saline solution continued until sacrifice. The size of the lesions present at the injection site was evaluated daily by caliper measurement. External lesion area was then calculated as the product of the two major lesion diameters. The mean size (cm^2) of the lesions present at the injection site is shown.
To determine whether HIV-PI could inhibit the growth of malignant solid and lymphoid tumours, nude mice were inoculated with hepato-carcinoma cells (SK-Hep-1), lung carcinoma cells (A549), breast adeno-carcinoma cells (MDA-MB-468), myelo-monocytic leukaemia cells (U937), and T lymhocytic leukaemia cells (Jurkat).

[3] = test system: myelo-monocytic leukaemia (U937) cells; experiment: Invasion assay of U937 cells in response to bFGF; format: cell-based, human; settings: 1 or 10 μM
Experimental: Shown is the result of a representative invasion assay performed on the myelo-monocytic leukaemia cells U937. […] The invasion assays were performed in the Boyden chamber. Polycarbonate filters (5 μM pores; Nucleoprobe, Cabin John, Md.) were coated first with collagen IV and then with Matrigel (Collaborative Biomedical Products) as described previously (Barillari et al., 1999b). […] Human recombinant bFGF (50 ng/ml) was placed in the lower compartment as chemoattractant. […] Louis, Mo.). Ten random filter fields were counted by light microscopy as described previously (Barillari et al., 1999b). Assays were repeated two times.

[4] = test system: primary macrovascular (umbilical vein) endothelial cells (HUVEC); experiment: Boyden chamber migration assay of HUVEC in response to bFGF; format: cell-based, human; settings: 0.1, 1 or 10 μM; bFGF 50 ng/ml; 5 hours
Experimental: Both assays were performed on endothelial cells.
Both assays were performed by the Boyden chamber separated in two compartments by polycarbonate filters with 12 μm pores (Nucleoprobe, Cabin John, Md.), coated with collagen IV (Collaborative Biomedical Products) for migration, or with collagen IV and Matrigel together for invasion, as described previously (Barillari et al., 1999b). […] After 5 hours (migration) or 6 hours (Invasion) of incubation, the non-migrated cells present on the top surface of the filters were mechanically removed, while the migrated cells on the bottom surface were fixed in methanol and stained with toluidine blue (Sigma Chemical Co., St. Louis, Mo.). The cells present in 5-10 microscopic fields of the filters, chosen at random, were counted as described previously (Barillari et al., 1999b).
The concentrations of HIV-PI used were the same as those present in plasma of treated patients (Deeks et al., 1997).

[5] = test system: lung carcinoma cells (A549); experiment: Cell growth assay of A549 cells; format: cell-based, human; settings: 10 μM; 4 days
Experimental: Shown is the result of a representative cell growth assay performed on the lung carcinoma cells. Human lung carcinoma cells (A549; ATCC) were plated in triplicate (8×10^4 cells/well) in 12-well plates. […] Ensoli et al., 1994b): For all the in vitro studies HIV-PI as endotoxin-free pure powder (a kind gift of Merck Sharp & Dohme and Roche) were resuspended in distilled water. Assays were repeated at least three times.

[6] = test system: endothelial/lung carcinoma hybrid (Ea-hy 926) cells; experiment: Invasion assay of Ea-hy 926 cells in response to bFGF; format: cell-based, human; settings: 1 μM
Experimental: The assays have been performed essentially as described in key to FIG. 1. No growth factors were added to EA-hy 926 cells since they produce factors which mediates cell growth in autocrine fashion (Edgell et al., 1983, Albini et al., PNAS 1995, Albini et al., Nat Med 1996). […] The assays have been performed essentially as described in legend to FIG. 3. Average and variation range of two independent experiments each performed in duplicate are shown.

Compound: CC(C)(C)NC(=O)[C@@H]1CN(Cc2cccnc2)CCN1C[C@@H](O)C[C@@H](Cc1ccccc1)C(=O)N[C@H]1c2ccccc2C[C@H]1O [Indinavir, indinavir]
- No. of mice with macroscopic vascular lesions/No. of inoculated mice [1]: 8/28
- mice with macroscopic vascular lesions (%) [1]: 28%
- Tissue staining (area % ± SD) CD31 [1]: 1.00 ± 0.6%
- Tissue staining (area % ± SD) FVIII-RA [1]: 1.32 ± 1.2%
- angiogenesis and infiltration of the cells, microscopic examination of the inoculation sites ([1]; in comparison with mice inoculated with bFGF and not treated): marked reduction
- development of tumour lesions (lesion size) [2]: inhibit
- invasive capacity in response to bFGF [3]: inhibit
- migration induced by bFGF [4]: block
- proliferation [5]: do not interfere
- invasion in response to bFGF [6]: inhibit

Compound: CC(C)(C)NC(=O)[C@@H]1C[C@@H]2CCCC[C@@H]2CN1C[C@@H](O)[C@H](Cc1ccccc1)NC(=O)[C@H](CC(N)=O)NC(=O)c1ccc2ccccc2n1 [Saquinavir, saquinavir]
- No. of mice with macroscopic vascular lesions/No. of inoculated mice [1]: 7/28
- mice with macroscopic vascular lesions (%) [1]: 25%
- Tissue staining (area % ± SD) CD31 [1]: 0.83 ± 0.3%
- Tissue staining (area % ± SD) FVIII-RA [1]: 1.13 ± 0.6%
- development of tumour lesions (lesion size) [2]: inhibit
- invasive capacity in response to bFGF [3]: inhibit
- migration induced by bFGF [4]: block
- proliferation [5]: do not interfere
- invasion in response to bFGF [6]: inhibit
